Data published in US10206394B2, “Herbicidal compounds” (Syngenta Participations AG, priority 2014, dated 2019).
Like-named read-outs stand apart in the source and are kept apart here.

How the values were obtained:
Experiment in all cases: Glasshouse assay for herbicidal activity (pre- and post-emergence), percentage phytotoxicity
Assay type in all cases: in vivo
[1] = tested on: Alopecurus myosuroides (ALOMY); details: Alopecurus myosuroides
Method in brief: (§1)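 Pot-grown plants treated one day after sowing (pre-emergence) or at about 12 days (post-emergence); glasshouse at 24/18° C (warm) or 20/16° C (cool species) day/night, 16 h light, 65% humidity. Visual % phytotoxicity (0 = none, 100 = total damage) scored at 15 DAA post or 20 DAA pre.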

Avena fatua (AVEFA) = details: Avena fatua
Method in brief: as §1

[2] = tested on: Echinochloa crus-galli (ECHCG); details: Echinochloa crus-galli
Method in brief: as §1

Lolium perenne (LOLPE) = details: Lolium perenne
Method in brief: as §1

[3] = post-emergence, 360 h, 250 g/ha, post-emergence, 15 DAA, visual assessment (100%=total damage, 0%=no damage), read-out: Post-emergence herbicidal activity (percentage phytotoxicity) ALOMY POST
[4] = pre-emergence, 480 h, 250 g/ha, pre-emergence, 20 DAA, visual assessment (100%=total damage, 0%=no damage), read-out: Pre-emergence herbicidal activity (percentage phytotoxicity) ALOMY PRE
[5] = post-emergence, 360 h, 250 g/ha, post-emergence, 15 DAA, visual assessment (100%=total damage, 0%=no damage), read-out: Post-emergence herbicidal activity (percentage phytotoxicity) AVEFA POST
[6] = pre-emergence, 480 h, 250 g/ha, pre-emergence, 20 DAA, visual assessment (100%=total damage, 0%=no damage), read-out: Pre-emergence herbicidal activity (percentage phytotoxicity) AVEFA PRE
[7] = post-emergence, 360 h, 250 g/ha, post-emergence, 15 DAA, visual assessment (100%=total damage, 0%=no damage), read-out: Post-emergence herbicidal activity (percentage phytotoxicity) ECHCG POST
[8] = pre-emergence, 480 h, 250 g/ha, pre-emergence, 20 DAA, visual assessment (100%=total damage, 0%=no damage), read-out: Pre-emergence herbicidal activity (percentage phytotoxicity) ECHCG PRE
[9] = post-emergence, 360 h, 250 g/ha, post-emergence, 15 DAA, visual assessment (100%=total damage, 0%=no damage), read-out: Post-emergence herbicidal activity (percentage phytotoxicity) LOLPE POST
[10] = pre-emergence, 480 h, 250 g/ha, pre-emergence, 20 DAA, visual assessment (100%=total damage, 0%=no damage), read-out: Pre-emergence herbicidal activity (percentage phytotoxicity) LOLPE PRE
[11] = post-emergence, 360 h, Rate 250 g/ha, post-emergence, assessed visually 15 DAA, 100%=total damage, 0%=no damage, read-out: Post-emergence herbicidal activity (percentage phytotoxicity) ALOMY POST
[12] = pre-emergence, 480 h, Rate 250 g/ha, pre-emergence, assessed visually 20 DAA, 100%=total damage, 0%=no damage, read-out: Pre-emergence herbicidal activity (percentage phytotoxicity) ALOMY PRE
[13] = post-emergence, 360 h, Rate 250 g/ha, post-emergence, assessed visually 15 DAA, 100%=total damage, 0%=no damage, read-out: Post-emergence herbicidal activity (percentage phytotoxicity) AVEFA POST
[14] = pre-emergence, 480 h, Rate 250 g/ha, pre-emergence, assessed visually 20 DAA, 100%=total damage, 0%=no damage, read-out: Pre-emergence herbicidal activity (percentage phytotoxicity) AVEFA PRE
[15] = post-emergence, 360 h, Rate 250 g/ha, post-emergence, assessed visually 15 DAA, 100%=total damage, 0%=no damage, read-out: Post-emergence herbicidal activity (percentage phytotoxicity) ECHCG POST
[16] = pre-emergence, 480 h, Rate 250 g/ha, pre-emergence, assessed visually 20 DAA, 100%=total damage, 0%=no damage, read-out: Pre-emergence herbicidal activity (percentage phytotoxicity) ECHCG PRE
[17] = post-emergence, 360 h, Rate 250 g/ha, post-emergence, assessed visually 15 DAA, 100%=total damage, 0%=no damage, read-out: Post-emergence herbicidal activity (percentage phytotoxicity) LOLPE POST
[18] = pre-emergence, 480 h, Rate 250 g/ha, pre-emergence, assessed visually 20 DAA, 100%=total damage, 0%=no damage, read-out: Pre-emergence herbicidal activity (percentage phytotoxicity) LOLPE PRE

Structure (SMILES) | pest or weed control at 250 g/ha [1, 11] [%] | pest or weed control at 250 g/ha [1, 12] [%] | pest or weed control at 250 g/ha (Avena fatua (AVEFA); [13]) [%] | pest or weed control at 250 g/ha (Avena fatua (AVEFA); [14]) [%] | pest or weed control at 250 g/ha [2, 15] [%] | pest or weed control at 250 g/ha [2, 16] [%] | pest or weed control at 250 g/ha (Lolium perenne (LOLPE); [17]) [%] | pest or weed control at 250 g/ha (Lolium perenne (LOLPE); [18]) [%] | further results
Cc1cc(C)c(C2C(=O)CC(CC(=O)NCc3cccc(C)n3)C2=O)c(C)c1 (centres unmarked) [Compound B68] |  |  |  |  |  |  |  |  | pest or weed control at 250 g/ha [1, 3]: 90%; pest or weed control at 250 g/ha [1, 4]: 80%; pest or weed control at 250 g/ha (Avena fatua (AVEFA); [5]): 80%; pest or weed control at 250 g/ha (Avena fatua (AVEFA); [6]): 10%; pest or weed control at 250 g/ha [2, 7]: 70%; pest or weed control at 250 g/ha [2, 8]: 80%; pest or weed control at 250 g/ha (Lolium perenne (LOLPE); [9]): 70%; pest or weed control at 250 g/ha (Lolium perenne (LOLPE); [10]): 80%
Cc1ccc(CNC(=O)CC2CC(=O)C(c3c(C)cc(C)cc3C)C2=O)nc1 (centres unmarked) [Compound A23] | 80 | 80 | 70 | 60 | 90 | 100 | 80 | 70 | 
COCCNC(=O)CC1CC(=O)C(c2c(C)cc(-c3ncc(Cl)cc3F)cc2C)C1=O (centres unmarked) [Compound A47] | 100 | 100 | 100 | 100 | 100 | 100 | 100 | 100 | 
CCCNC(=O)CC1CC(=O)C(c2c(C)cc(Br)cc2C)C1=O (centres unmarked) [Compound B145] |  |  |  |  |  |  |  |  | pest or weed control at 250 g/ha [1, 3]: 80%; pest or weed control at 250 g/ha [1, 4]: 70%; pest or weed control at 250 g/ha (Avena fatua (AVEFA); [5]): 90%; pest or weed control at 250 g/ha (Avena fatua (AVEFA); [6]): 60%; pest or weed control at 250 g/ha [2, 7]: 80%; pest or weed control at 250 g/ha [2, 8]: 80%; pest or weed control at 250 g/ha (Lolium perenne (LOLPE); [9]): 90%; pest or weed control at 250 g/ha (Lolium perenne (LOLPE); [10]): 90%
COc1ccccc1CNC(=O)CC1CC(=O)C(c2c(C)cc(C)cc2C)C1=O (centres unmarked) [Compound A90] | 0 | 0 | 0 | 0 | 80 | 40 | 70 | 60 | 
CCNC(=O)CC1CC(=O)C(c2c(C)cc(-c3ncc(C#N)cn3)cc2C)C1=O (centres unmarked) [Compound B286] |  |  |  |  |  |  |  |  | pest or weed control at 250 g/ha ([1]; post-emergence, 360 h, POST-emergence, rate 250 g/ha, visual score 15 DAA (100%=total damage, 0%=no damage), read-out: Post-emergence herbicidal activity (percentage phytotoxicity) ALOMY POST): 100%; pest or weed control at 250 g/ha ([1]; pre-emergence, 480 h, PRE-emergence, rate 250 g/ha, visual score 20 DAA (100%=total damage, 0%=no damage), read-out: Pre-emergence herbicidal activity (percentage phytotoxicity) ALOMY PRE): 100%; pest or weed control at 250 g/ha (Avena fatua (AVEFA); post-emergence, 360 h, POST-emergence, rate 250 g/ha, visual score 15 DAA (100%=total damage, 0%=no damage), read-out: Post-emergence herbicidal activity (percentage phytotoxicity) AVEFA POST): 100%; pest or weed control at 250 g/ha (Avena fatua (AVEFA); pre-emergence, 480 h, PRE-emergence, rate 250 g/ha, visual score 20 DAA (100%=total damage, 0%=no damage), read-out: Pre-emergence herbicidal activity (percentage phytotoxicity) AVEFA PRE): 90%; pest or weed control at 250 g/ha ([2]; post-emergence, 360 h, POST-emergence, rate 250 g/ha, visual score 15 DAA (100%=total damage, 0%=no damage), read-out: Post-emergence herbicidal activity (percentage phytotoxicity) ECHCG POST): 100%; pest or weed control at 250 g/ha ([2]; pre-emergence, 480 h, PRE-emergence, rate 250 g/ha, visual score 20 DAA (100%=total damage, 0%=no damage), read-out: Pre-emergence herbicidal activity (percentage phytotoxicity) ECHCG PRE): 100%; pest or weed control at 250 g/ha (Lolium perenne (LOLPE); post-emergence, 360 h, POST-emergence, rate 250 g/ha, visual score 15 DAA (100%=total damage, 0%=no damage), read-out: Post-emergence herbicidal activity (percentage phytotoxicity) LOLPE POST): 100%; pest or weed control at 250 g/ha (Lolium perenne (LOLPE); pre-emergence, 480 h, PRE-emergence, rate 250 g/ha, visual score 20 DAA (100%=total damage, 0%=no damage), read-out: Pre-emergence herbicidal activity (percentage phytotoxicity) LOLPE PRE): 90%
Cc1cc(C)c(C2C(=O)CC(CC(=O)NCc3ccc(OC(F)(F)F)cc3)C2=O)c(C)c1 (centres unmarked) [Compound A92] | 60 | 70 | 70 | 60 | 80 | 80 | 40 | 90 | 
